Assay results reported in patent US10525026B2, “Intravenous administration of citrulline during surgery” (Vanderbilt University, priority 2015, dated 2020).

How the values were obtained:
[1] = Perioperative intravenous L-citrulline pharmacokinetics, single bolus dose escalation in children undergoing congenital cardiac surgery; assay type: in vivo
Protocol: To determine clearance of a single bolus dose of IV citrulline and optimal dose frequency, a dose escalation design using three concentrations of IV citrulline: 50, 100, & 150 mg/kg was utilized. The dose of citrulline was given in the operating room immediately after cannulation and initiation of cardiopulmonary bypass. The overall goal was to achieve a sustained citrulline level of 100 μmol/L or more up to four hours after the initial dose. The four hour time point was selected to allow for the surgical procedure to be completed and the patient to return to the ICU postoperatively before further dosing.
Patients were then enrolled using this revised protocol of a combination of a bolus dose of 150 mg/kg in the OR on CPB and a continuous infusion of 9 mg/kg/hr started postop in the PICU at 4 hours after the initial bolus dose.

[2] = Randomized, placebo controlled, double blind intravenous citrulline study (77 patients); assay type: in vivo, children; settings: bolus plus infusion protocol, hemofiltration during CPB
Text: An intravenous citrulline study conducted was a randomized, placebo controlled, double blind study with the primary clinical outcome being length of mechanical ventilation postoperatively and secondarily the incidence of postoperative pulmonary hypertension between the 2 treatment groups (citrulline vs placebo).
A total of 77 patients were enrolled at Vanderbilt Children's Hospital. Patients were screened based on the surgical schedule. Based on this schedule, patients undergoing one of the 5 planned cardiac surgeries included in this study were screened (patients undergoing the Norwood procedure are now excluded at the recommendation of the DSMB).
The study was stopped in preparation for a larger multicenter randomized placebo controlled trial. […] These hemofiltration techniques had changed during the study, and the investigators were not aware of these changes.

[3] = Phase IB single-blind, randomized, placebo controlled PK and safety study of IV L-citrulline in children and infants undergoing CPB; assay type: in vivo
Protocol: A multicenter, Phase IB single-blind, randomized, placebo controlled study was conducted to determine the pharmacokinetics (PK) and safety of IV L-citrulline administration to children and infants undergoing cardiopulmonary bypass (CPB) for surgical repair of congenital heart defects.
The primary objective of the study was to determine if a revised protocol of intravenous (IV) L-citrulline delivery given peri-operatively achieved a plasma citrulline level of >100 μmol/L in the group given citrulline and to compare that to citrulline levels in the placebo group, during follow-up in children undergoing surgical repair of an atrial septal defect (ASD) and/or a ventricular septal defect (VSD) or a partial or complete atrioventricular septal defect (AVSD).
Twenty two (22) patients were enrolled and treated. The patients received study drug or placebo infusion according to a fixed dosing protocol starting at the initiation of CPB until 48 hours postoperatively or until removal of the arterial line. Study participation ended at discharge or at Day 28 whichever came first. The dosing regimen was designed to maintain plasma citrulline levels in the face of extended hemofiltration.
Plasma citrulline concentration levels were the primary PK variable; these were assessed in blood samples collected at 7 perioperative time points. Secondary PK variables were concentrations of arginine and nitric oxide (NO) metabolites in the same sample set. PK values were compared between groups.
Subjects received an IV citrulline bolus of 150 mg/kg or placebo at the initiation of CPB, followed by the addition of L-citrulline at a concentration of 200 μmol/L or placebo to the filtration or hemoconcentration replacement fluid used during CPB. A citrulline bolus of 20 mg/kg was administered 30 minutes after decannulation from CPB, immediately followed by a 9-mg/kg/hr continuous infusion of citrulline or placebo for 48 hours.
Primary safety assessments included hemodynamic monitoring to identify clinically significant hypotension using age-specific limits. Adverse event information was collected, and postoperative bleeding was recorded.
Further safety, laboratory, and clinical assessments were performed from baseline to discharge, secondary clinical variables included: postoperative mechanical ventilation, duration of total respiratory support, hemodynamic improvement, postoperative PVT by echocardiogram, serum creatinine and liver enzymes, inotrope score, duration of chest tube usage, length of intensive care unit stay, length of hospitalization and survival.
The duration of postoperative invasive mechanical ventilation was derived as the time in hours from separation from cardiopulmonary bypass until endotracheal extubation. If a patient required reintubation within 24 hours after extubation, the reintubation time was added in the main analysis. In a second analysis, the reintubation time was not included.

[4] = Revised dosing protocol for cardiac surgery, 22 patients randomized to placebo and citrulline; assay type: in vivo, children
Text: The study in this example was undertaken to test a revised dosing protocol designed to achieve and maintain therapeutic citrulline levels in the face of ultrafiltration and crystalloid replacement. […] The study recruited 22 patients randomized in equal numbers of 11 patients each to placebo and citrulline arms. Early in the course of the study, it was recognized that one of the two participating centers routinely extubated all patients in the operating room immediately following cessation of cardiopulmonary bypass. This precluded use of the duration of mechanical ventilation as an endpoint. Instead, a post-hoc analysis was applied using the duration of all forms of ventilatory support as a possible endpoint. […] In contrast, contingency table analysis, shown in Table 5, did achieve borderline significance. Overall, the results are considered to represent a strong trend.

[5] = Perioperative oral citrulline supplementation in children undergoing congenital cardiac surgery; assay type: in vivo
Protocol: 40 patients with one of the 5 surgical diagnoses identified above were randomized to receive 5 doses of oral citrulline (1.9 grams/kg) vs. placebo. The first dose was administered immediately prior to surgery and the second dose immediately on arrival in the Pediatric ICU after surgery followed every 12 hours×3 doses.

[6] = Intravenous citrulline in piglets: safety and effect on serum arginine levels; assay type: in vivo, Duroc swine; settings: 600 mg/kg IV
Protocol: The objective was to assess the safety of intravenous citrulline and its effect on serum arginine levels in piglets. A total of 9 Duroc swine, aged 5-21 days, with a target minimum weight of 4 kg were utilized. All piglets underwent anesthetic induction and tracheostomy. Central lines were placed in the femoral artery and femoral vein and hemodynamics monitored continuously. Citrulline (600 mg/kg IV) was administered to 5 piglets. Saline was given to control animals. Serum amino acids were drawn before and each hour after citrulline administration.

[7] = Safety and pharmacokinetics of intravenous citrulline, open label dose escalation in children undergoing repair of congenital heart defects; assay type: in vivo; settings: for concentration at 4 h: read-out: 4 hour trough citrulline level
Protocol: The initial goal was to test the safety and pharmacokinetics of three doses of intravenous citrulline in children undergoing surgical repair of specific congenital heart defects. […] An adverse drop in mean arterial pressure was defined as a greater than a twenty percent decrease from baseline. The baseline postoperative mean arterial blood pressure was calculated as the average of mean arterial blood pressure measurements collected every 5 minutes for the 30 minutes immediately preceding the administration of the postoperative dose or infusion.
The original doses selected were 200, 400, and 600 mg/kg based on data from previous animal studies. The original study design was a 4 arm study using the 3 doses and a placebo control.
After pharmacokinetic modeling, the study design was changed to a bolus dose of 150 mg/kg given in the OR on cardiopulmonary bypass followed 4 hours later by a continuous infusion of 9 mg/kg/hour for 48 hours. Another 9 patients were enrolled. The mean plasma levels of both citrulline and arginine in study patients (+IV citrulline) compared to patients in the observational cohort (−IV citrulline) are depicted in FIGS. 11A-B.

[8] = revised dosing protocol, contingency table, 11 patients per arm
[9] = bolus 150 mg/kg at beginning of surgery, 4 hours later continuous infusion 9 mg/kg/hr
[10] = original doses 200, 400, and 600 mg/kg intravenous, five patients

NC(=O)NCCCC(N)C(=O)O (stereo not drawn) [citrulline, 2-amino-5-(carbamoylamino)pentanoic acid]
Adverse effects including hypotension ([1]; IV bolus 50, 100, 150 mg/kg): no adverse effects including hypotension | ½ life of the bolus doses ([1]; IV bolus 50, 100, 150 mg/kg): 60 to 90 min | concentration at 4 h ([1]; human, plasma, 150 mg/kg IV bolus after initiation of CPB, read-out: Four hour citrulline levels): ~100 µM | Reaching the sustained target plasma citrulline level of 100 μmol/L [2]: a majority who received citrulline did not reach the therapeutic sustained target plasma citrulline level | Plasma citrulline levels ([3]; bolus 150 mg/kg, 200 μmol/L in filtration fluid, bolus 20 mg/kg, infusion 9 mg/kg/hr for 48 hours): > 100 µmol/L | Sustained plasma citrulline levels ([3]; bolus 150 mg/kg, 200 μmol/L in priming and hemofiltration fluid, bolus 20 mg/kg, infusion 9 mg/kg/hr for 48 hours): around 100 μmol/L | Duration of invasive mechanical ventilation, Kaplan-Meier analysis versus placebo ([3]; excluding re-intubation, Wilcoxon p=0.0222, ANOVA t-test p=0.0317): reduced duration of mechanical ventilation | Mean duration of invasive mechanical ventilation ([3]; including the reintubation time, placebo 37 hours): 5 h | Composite durations of mechanical ventilation and inotrope therapy versus placebo ([3]; longer of the two durations, surrogate for ICU stay): shorter composite durations of mechanical ventilation and inotrope therapy | Patients extubated in the operating room ([3]; one site, 6 patients per group, placebo 33%): 100% | Systolic and diastolic blood pressure versus placebo ([4]; FIG. 18A): No significant change in systolic and diastolic blood pressure | Mean arterial pressure versus placebo ([4]; FIG. 18B): No significant change in the mean arterial pressure | Inotrope scores versus placebo ([4]; particularly from 15 to 18 hours onward following ICU admission): markedly better inotrope scores | Adverse effects upon hemodynamic parameters ([4]; revised dosing protocol): No adverse effects upon hemodynamic parameters were observed | Number of patients with Duration of Respiratory Support >50 hours [4, 8]: 2 | Number of patients with Duration of Respiratory Support ≤50 hours [4, 8]: 7 | Tolerability / adverse events of oral citrulline ([5]; 1.9 g/kg before CPB, postoperatively and every 12 hours for 48 hours): well tolerated with no evidence of significant adverse events | Plasma citrulline levels ([5]; 5 doses of 1.9 grams/kg, vs. placebo 26, p=0.013): 36 µmol/L | Hemodynamic instability [6]: No hemodynamic instability was observed | Time of peak serum arginine levels following intravenous citrulline administration [6]: 1 to 2 h | Arginine Levels Following intravenous citrulline ([6]; 1 hour post): 535.0 µmol/L | Mean Arterial Blood Pressures Following intravenous Citrulline ([6]; 1 hour post): 67.4 mmHg | Arginine Levels Following intravenous citrulline ([6]; 2 hours post): 559.8 µmol/L | Mean Arterial Blood Pressures Following intravenous Citrulline ([6]; 2 hours post): 64.8 mmHg | Arginine Levels Following intravenous citrulline ([6]; 3 hours post): 498.4 µmol/L | Mean Arterial Blood Pressures Following intravenous Citrulline ([6]; 3 hours post): 62.2 mmHg | Arginine Levels Following intravenous citrulline ([6]; Baseline): 131.5 µmol/L | Mean Arterial Blood Pressures Following intravenous Citrulline ([6]; Pre-dose): 67.0 mmHg | Adverse side effects ([7]; 50 mg/kg intravenous): No adverse side effects were noted | Peak citrulline level ([7]; 50 mg/kg intravenous, patients 6 and 8): approximately 220 μmol/L | Adverse side effects ([7]; 100 mg/kg intravenous): no adverse side effects were noted | Peak citrulline level ([7]; 100 mg/kg intravenous, patients 9 & 10): 375 µmol/L | Peak citrulline level ([7]; 150 mg/kg intravenous, patients 13-16): 660 µmol/L | Adverse side effects [7, 9]: No adverse side effects were noted | Sustained plasma citrulline levels [7, 9]: around 100 μmol/L | Significant adverse events ([7]; bolus 150 mg/kg on CPB, 4 hours later infusion 9 mg/kg/hour for 48 hours): one significant adverse event but it was not related to the use of IV citrulline | concentration at 4 h ([7]; human, plasma, 50 mg/kg intravenous, patients 6 and 8): 40 µM | concentration at 4 h ([7]; human, plasma, 100 mg/kg intravenous, patients 9 & 10): 50 µM | concentration at 4 h ([7]; human, plasma, 150 mg/kg intravenous, patients 13-16): 80 µM | half-life ([7]; human, plasma, intravenous bolus 50, 100, 150 mg/kg): ~1.42 h | Adverse effects [7, 10]: no adverse effects were noted | Plasma levels achieved [7, 10]: very high
